Measurements published in patent US20070191480A1, “Gycol Ether Miticides and Anti-Allergen Treatments” (priority 2004, published 2007).
Like-named read-outs stand apart in the source and are kept apart here.

Columns and labels:
[1] = Vapor pressure
Method: The preferred vapor pressure of the solvents is less than about 1 mm Hg at 20° C., and preferably the vapor pressure is less than 0.5 mm Hg at 20° C.

[2] = tested on: dust mites; assay: Dust mite kill efficacy, submersion method; type: in vivo; settings: for 1% HC Solution: % kill at 30 min / 1% HC Solution: time to 100% kill: 1% HC solution with 1% Stepanol WAC; for 1% HC Solution: % kill at 30 min: None = no kill; for 1% HC with 7% DPnP Solution: % kill at 30 min / 1% HC with 7% DpnP at 9.5 pH: % kill at 30 min / 1% HC with 7% DPnP Solution: time to 100% kill / 1% HC with 7% DpnP at 9.5 pH: time to 100% kill: 1% Stepanol WAC; for 1% HC with 7% DpnP at 9.5 pH: % kill at 30 min / 1% HC with 7% DpnP at 9.5 pH: time to 100% kill: pH 9.5; for 8% Solution: time to 100% kill: 8% glycol ether/ester in water with 1% Stepanol WAC, mites immersed, maximum time period 30 minutes; for >50% kill in 30 min.: 8% or saturated solutions in water, dust mites; for 1% HC Solution: time to 100% kill: solution pH (6.30-7.26); for 1% HC Solution: time to 100% kill / 1% HC with 7% DPnP Solution: time to 100% kill / 1% HC with 7% DpnP at 9.5 pH: time to 100% kill: maximum 30 minutes
Source text: To test the efficacy of the cleaning composition containing glycol ether, glycol ether ester, and combinations thereof for their ability to kill dust mites, a submersion method was used. The dust mites were immersed in the following solutions with a 1% or 8% glycol ether, glycol ether ester or a combination thereof. In addition to the glycol ether and or glycol ether ester, the solution also contained about 1% Stepanol® WAC (sodium lauryl sulfate) surfactant and the remainder of the solution was water. The pH of the aqueous solution was maintained between about 5 to 10.
After the dust mites were immersed in the solution they were tested each minute to determine if they were still alive or not. To test if the mites were alive after treatment, they are viewed under a dissecting microscope and poked with a 26-guage needle to induce movement. […] Since sometimes dust mites may appear to-be dead after treatment and then recover a few days later, a treated population and a control sample were placed in a high humidity desiccators and poke tests were conducted over several days following the initial treatment to ensure that the initial reported kill rates were accurate.

[3] = Solubility in water at 20° C.

CCCCOCCOCCOC(C)=O [Butyl Carbitol Acetate, diethylene glycol n-butyl ether acetate]
Vapor Pressure (mm Hg) [1]: 0.04 mm Hg | 1% HC Solution: % kill at 30 min [2]: 50% kill | 1% HC with 7% DPnP Solution: % kill at 30 min [2]: 90% kill | 1% HC with 7% DpnP at 9.5 pH: % kill at 30 min [2]: 80% kill | 8% Solution: time to 100% kill [2]: 20 min | >50% kill in 30 min. [2]: Yes

CCCCOCCOC(C)=O [Butyl Cellosolve Acetate, ethylene glycol n-butyl ether acetate]
Vapor Pressure (mm Hg) ([1]; at 20° C.): 0.29 mm Hg | Solubility in water at 20° C. [3]: 1% | 1% HC Solution: time to 100% kill [2]: 22 min | 1% HC with 7% DPnP Solution: time to 100% kill [2]: 18 min | 1% HC with 7% DpnP at 9.5 pH: time to 100% kill [2]: 16 min | 8% Solution: time to 100% kill [2]: 4 min | >50% kill in 30 min. [2]: Yes

CCOCCOCCO [Diethylene glycol ethyl ether]
Vapor Pressure (mm Hg) [1]: 0.12 mm Hg | >50% kill in 30 min. [2]: No

COCCOCCO [Diethylene glycol methyl ether]
Vapor Pressure (mm Hg) ([1]; at 20° C.): 0.2 mm Hg | Solubility in water at 20° C. [3]: 100% | >50% kill in 30 min. [2]: no

CCCCOCCOCCO [Diethylene glycol n-butyl ether]
Vapor Pressure (mm Hg) ([1]; at 20° C.): 0.02 mm Hg | Solubility in water at 20° C. [3]: 100% | >50% kill in 30 min. [2]: No

COC(C)COC(C)COC(C)=O (stereo not shown) [Dipropylene glycol methyl ether acetate]
Vapor Pressure (mm Hg) [1]: 0.05 mm Hg | >50% kill in 30 min. [2]: Yes

COC(C)COC(C)CO (stereo not shown) [Dipropylene glycol methyl ether]
Vapor Pressure (mm Hg) [1]: 0.17 mm Hg | >50% kill in 30 min. [2]: No

CCCOC(C)COC(C)CO (stereo not shown) [Dipropylene glycol n-propyl ether]
Vapor Pressure (mm Hg) ([1]; at 20° C.): 0.05 mm Hg | Solubility in water at 20° C. [3]: 18% | >50% kill in 30 min. [2]: No

OCCOc1ccccc1 [Dowanol Eph, ethylene glycol phenyl ether]
1% HC Solution: % kill at 30 min [2]: 95% kill | 1% HC with 7% DPnP Solution: % kill at 30 min [2]: 95% kill | 1% HC with 7% DpnP at 9.5 pH: % kill at 30 min [2]: 50% kill | 8% Solution: time to 100% kill [2]: 17 min

CC(O)COc1ccccc1 (stereo not shown) [Dowanol PPh, propylene glycol phenol ether]
1% HC Solution: time to 100% kill [2]: 22 min | 1% HC with 7% DPnP Solution: time to 100% kill [2]: 30 min | 1% HC with 7% DpnP at 9.5 pH: time to 100% kill [2]: 26 min | 8% Solution: time to 100% kill [2]: 7 min

CCCCOCC(C)O (stereo not shown) [Dowanol PnB, propylene glycol n-butyl ether]
Vapor Pressure (mm Hg) [1]: 0.62 mm Hg | 1% HC Solution: % kill at 30 min [2]: None | 1% HC with 7% DPnP Solution: time to 100% kill [2]: 29 min | 1% HC with 7% DpnP at 9.5 pH: % kill at 30 min [2]: 60% kill | 8% Solution: time to 100% kill [2]: 17 min | >50% kill in 30 min. [2]: Yes

CCCCOC(C)COC(C)COC(C)CO (stereo not shown) [Dowanol TPnB, Tripropylene glycol n-butyl ether]
Vapor Pressure (mm Hg) ([1]; at 20° C.): <0.01 mm Hg | 1% HC Solution: % kill at 30 min [2]: None | 1% HC with 7% DPnP Solution: % kill at 30 min [2]: 90% kill | 1% HC with 7% DpnP at 9.5 pH: % kill at 30 min [2]: No kill | 8% Solution: time to 100% kill [2]: 20 min | >50% kill in 30 min. [2]: Yes

CCCCOCCO [Ethylene glycol n-butyl ether]
Vapor Pressure (mm Hg) ([1]; at 20° C.): 0.6 mm Hg | >50% kill in 30 min. [2]: No

CCCOCCO [Ethylene glycol n-propyl ether]
Vapor Pressure (mm Hg) [1]: 1.3 mm Hg | >50% kill in 30 min. [2]: No

CCCCCCOCCOCCO [Hexyl Carbitol, diethylene glycol monohexyl ether]
1% HC Solution: % kill at 30 min [2]: None | 1% HC with 7% DPnP Solution: time to 100% kill [2]: 26 min | 1% HC with 7% DpnP at 9.5 pH: % kill at 30 min [2]: No kill | 8% Solution: time to 100% kill [2]: 25 min

CCCCCCOCCO [Hexyl Cellosolve, ethylene glycol monohexyl ether]
Vapor Pressure (mm Hg) [1]: <1.0 mm Hg | 1% HC Solution: time to 100% kill [2]: 15 min | 1% HC with 7% DPnP Solution: time to 100% kill [2]: 14 min | 1% HC with 7% DpnP at 9.5 pH: time to 100% kill [2]: 26 min | 8% Solution: time to 100% kill [2]: 11 min | >50% kill in 30 min. [2]: Yes

COCC(C)OC(C)=O (stereo not shown) [Propylene glycol methyl ether acetate]
Vapor Pressure (mm Hg) [1]: 3.8 mm Hg | >50% kill in 30 min. [2]: No

COCC(C)O (stereo not shown) [Propylene glycol methyl ether]
Vapor Pressure (mm Hg) ([1]; at 20° C.): 8.1 mm Hg | Solubility in water at 20° C. [3]: 100% | >50% kill in 30 min. [2]: No

CCCOCC(C)O (stereo not shown) [Propylene glycol n-propyl ether]
Vapor Pressure (mm Hg) ([1]; at 20° C.): 1.8 mm Hg | Solubility in water at 20° C. [3]: 100% | >50% kill in 30 min. [2]: No
